Reference: patent US6221670A, “Methods to identify β-amyloid reducing agents” (Scios Inc., priority 1997, dated 2001)
Where a SMILES comes first, the peptide text is derived from it. The star is where a group is joined. Cbz = O=C(OCc1ccccc1)*

Tests used:
[1] = toxicity in transgenic mouse hippocampal organotypic slice culture by visual inspection; type: cell-based, mice transgenic for β-APP751; settings: 25 μM to 400 μM, not toxic until this concentration, read-out: concentration at which toxicity became apparent by visual inspection
Description: Assessment of β-amyloid inhibitor activity and toxicity. Cultures are observed visually approximately every other day. Prior to the commencement of compound testing, on day 18 in culture, a three day test period was initiated in which media was conditioned by the untreated cultures. This media was collected and assayed for β-amyloid 1-40 and 1-42 levels using sensitive ELISAs. Organotypic cultures were then washed with media twice, and incubated for a further 3 day conditioning period in media supplemented with 25 μM to 400 μM MDL 28170, a protease inhibitor shown to inhibit total β-amyloid production in cell culture with an IC50 of 100 μM. MDL 28170 was applied from 100×stock solutions prepared in DMSO. Control culture received only DMSO. After conditioned media was collected at […], organotypic cultures were washed with serum free media twice and incubated for an additional 24 hours in serum free media in the continued presence of MDL 28170. This conditioned media was assayed for lactate dehydrogenase (LDH) activity. LDH is a ubiquitous cytosolic enzyme released into conditioned media only by unhealthy cells and is an index of viability and toxicity. High levels of LDH activity in serum require measurements to be made in serum free conditioned media. […]

[2] = toxicity in transgenic mouse hippocampal organotypic slice culture by LDH assay of serum free conditioned media; type: cell-based, mice transgenic for β-APP751; settings: 25 μM to 400 μM, 3 days, then additional 24 hours in serum free media, not toxic until this concentration, read-out: concentration at which toxicity became apparent by LDH assay
Description: Detailed description of FIG. 4. Hippocampal organotypic slice cultures were prepared from mice transgenic for β-APP751. On day 21 in vitro, organotypic cultures were washed with media twice, and duplicate wells were incubated for a 3-day conditioning period in media supplemented with 25 μM to 400 μM MDL 28170, a protease inhibitor shown to inhibit total β-amyloid production in cell culture with an IC50 of 100 μM. MDL 28170 was applied from 100×stock solutions prepared in DMSO. Control culture received only DMSO. Conditioned media was collected at day 24 and assayed in duplicate for β-amyloid 1-40 using a sandwich ELISA. Organotypic cultures were washed with serum free media twice and incubated for an additional 24 hours in serum free media in the continued presence of MDL 28170. This conditioned media was assayed for lactate dehydrogenase (LDH) activity. LDH is a ubiquitous cytosolic enzyme released into conditioned media only by unhealthy cells and is an index of viability and toxicity. High levels of LDH activity in serum require measurements to be made in serum free conditioned media. Data points shown were calculated by first taking the mean of duplicate ELISA values for each well, and then calculating the mean of the values for the duplicate treatment wells.
Assessment of β-amyloid inhibitor activity and toxicity. Cultures are observed visually approximately every other day. […]

[3] = tested on: total β-amyloid production; settings: cited from earlier work
β-amyloid 1-40 = β-amyloid 1-40 secretion by transgenic mouse hippocampal organotypic slice culture (sandwich ELISA); type: cell-based; settings: 72 h; 25 μM to 400 μM, 3-day conditioning period, FIG. 4; read-out: IC50 for β-amyloid production by transgenic mouse hippocampal organotypic slice culture
Description: Preparation of cultures. Ten day old mouse pups transgenic for the 751 amino acid isoform of human β-amyloid precursor protein (β-APP),programmed for neural expression by the neuron specific enolase promoter were used as tissue source for hippocampal organotypic slice cultures. Cultures were prepared as for rat brain slice organotypic cultures described in Example 1.
Preperation of cultures. Hippocampal organotypic slice cultures were prepared as described in example 2, from 10 day old mice transgenic for the 751 amino acid isoform of human β-amyloid precursor protein (β-APP), programmed for neural expression by the neuron specific enolase promoter and maintained in culture for 10 days.
Preparation of cultures. Hippocampal organotypic slice cultures are prepared from 10 day old mice transgenic for the 751 amino acid isoform of human β-amyloid precursor protein (β-APP), programmed for neural expression by the neuron specific enolase promoter as described in Example 2, and maintained in culture for 6 weeks.
Detailed description of FIG. 4. Hippocampal organotypic slice cultures were prepared from mice transgenic for β-APP751. […] Data points shown were calculated by first taking the mean of duplicate ELISA values for each well, and then calculating the mean of the values for the duplicate treatment wells. […]

For CC(C)[C@H](NC(=O)OCc1ccccc1)C(=O)N[C@H](C=O)Cc1ccccc1 [MDL 28170] (Cbz-Val-Phe-aldehyde), the MCC [1] is given as 400 µM, the MCC [2] is given as 400 µM and the IC50 ([3]; cell culture (monotypic cells), previously shown, read-out: IC50 for inhibition of total β-amyloid production in cell culture) is given as 100 µM. The “reversibility of MDL activity on cultured monotypic cells” value ([3]; cultured monotypic cells) was “reversible” and the IC50 (β-amyloid 1-40) was 100 µM.
